Literature values in patent US7192954B2, “Monocyclic anilide spirohydantoin CGRP receptor antagonists” (Merck & Co., Inc., priority 2003, dated 2007).
Ends that are not written are not given here.

What was measured:
marmoset = conditions: electrical stimulation of the trigeminal ganglion
rats = conditions: electrical stimulation of the dura mater, prior administration
rat = conditions: trigeminal ganglion stimulation

Compound | increase in facial blood flow (marmoset) | increase of the diameter of the middle meningeal artery (rats) | increase of facial blood flow (rat)
NCCCC[C@H](NC(=O)[C@@H](Cc1cc(Br)c(O)c(Br)c1)NC(=O)N1CCC(N2Cc3ccccc3NC2=O)CC1)C(=O)N1CCN(c2ccncc2)CC1 [BIBN4096BS] | blocked |  | 
CGRP(8–37): a peptide CGRP antagonist (VTHRLAGLLSRSGGVVKNNFVPTNVGSKAF; ends and bridges not checked; UniProt P06881 90-119, looked up, fragment) |  | blocked | inhibited
